# In article PMC9250534, “Synthesis and direct assay of large macrocycle diversities by combinatorial late-stage modification at picomole scale” (Nature Communications, 2022):
# Target: MDM2 (Homo sapiens, UniProt Q00987)
# Test: MDM2 binding screen: displacement of fluorescent p53 peptide probe FP53 (fluorescence polarization)
# Conditions: for fraction fluorescent probe displaced, Screen: initial screen; for fraction fluorescent probe displaced, Screen / fraction fluorescent probe displaced, Replicate: crude macrocycle reactions
# Protocol: We screened Library 2 in 384-microwell plates by dispensing the target protein MDM2 and reporter peptide into the wells containing the macrocycle reactions.
# The products were screened for displacement of a p53-based fluorescent peptide from human MDM2. Final macrocycle concentrations were 10 µM. For each macrocycle, the MDM2 binding was measured once.
# One fluorescence anisotropy reading was taken with a Tecan Infinite F200 Pro fluorescence plate reader (excitation at 485 nm, emission at 535 nm) at 25 °C. Data was collected and exported using the Tecan Infinite M200 Pro instrument software. The data was analyzed by Excel (version 2016).
# [1] = crude reaction of macrocycle scaffold with Acid 25, (initial screen)
# [2] = crude reaction of macrocycle scaffold with Acid 25, replicate
# [3] = crude reaction of macrocycle scaffold with Acid 91, (initial screen)
# [4] = crude reaction of macrocycle scaffold with Acid 91, replicate
# MDM2, sequence (Q00987 whole entry): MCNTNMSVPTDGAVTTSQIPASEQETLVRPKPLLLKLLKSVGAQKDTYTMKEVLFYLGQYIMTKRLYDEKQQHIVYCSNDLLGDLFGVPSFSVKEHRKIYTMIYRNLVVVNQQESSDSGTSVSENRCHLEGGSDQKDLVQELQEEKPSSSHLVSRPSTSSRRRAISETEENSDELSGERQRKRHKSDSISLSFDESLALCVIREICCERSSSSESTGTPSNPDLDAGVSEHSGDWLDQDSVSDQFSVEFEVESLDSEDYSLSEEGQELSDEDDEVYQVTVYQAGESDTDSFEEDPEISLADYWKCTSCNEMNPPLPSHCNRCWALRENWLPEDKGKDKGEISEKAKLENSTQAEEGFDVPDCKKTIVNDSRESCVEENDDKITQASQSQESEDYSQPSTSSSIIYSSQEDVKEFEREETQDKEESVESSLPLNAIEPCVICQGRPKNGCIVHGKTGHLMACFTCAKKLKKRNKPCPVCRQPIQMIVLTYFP
smiles,measurement,setting,value
O=C(C=Cc1ccccc1)NC1CC2C(=O)NCCSSCCC(=O)NCCC(=O)NC(Cc3ccccc3)C(=O)N2C1 (stereo not shown) [X B2 F D5 Acid 91],"fraction fluorescent probe displaced, Screen",Acid 91,0.00268
same,"fraction fluorescent probe displaced, Replicate","Acid 91, replicate",-0.08
O=C1CCSSCCNC(=O)C2(CCN(C(=O)c3ccc(Cl)s3)CC2)NC(=O)[C@H](Cc2ccccc2)NC(=O)CCN1 [X B2 F D6 Acid 14],"fraction fluorescent probe displaced, Screen",Acid 14,0.08
same,"fraction fluorescent probe displaced, Replicate","Acid 14, replicate",0.12
O=C1CCSSCCNC(=O)C2(CCN(C(=O)c3ccc(Cl)cc3)CC2)NC(=O)[C@H](Cc2ccccc2)NC(=O)CCN1 [X B2 F D6 Acid 25],"fraction fluorescent probe displaced, Screen",Acid 25,-0.17
same,"fraction fluorescent probe displaced, Replicate","Acid 25, replicate",0.0465
O=C1CCSSCCNC(=O)C2(CCN(C(=O)/C=C/c3ccccc3)CC2)NC(=O)[C@H](Cc2ccccc2)NC(=O)CCN1 [X B2 F D6 Acid 91],"fraction fluorescent probe displaced, Screen",Acid 91,0.0563
same,"fraction fluorescent probe displaced, Replicate","Acid 91, replicate",0.12
O=C1CCSSCCNC(=O)C2CN(C(=O)C=Cc3ccccc3)CCN2C(=O)C(Cc2ccccc2)NC(=O)CCN1 (stereo not shown) [X B2 F D7 Acid 91],"fraction fluorescent probe displaced, Screen",Acid 91,0.03
same,"fraction fluorescent probe displaced, Replicate","Acid 91, replicate",-0.00827
O=C1CCSSCCNC(=O)[C@H](CNC(=O)c2ccc(Cl)cc2)NC(=O)[C@H](Cc2c[nH]c3ccccc23)NC(=O)CCN1 [X B2 W D3 Acid 25],"fraction fluorescent probe displaced, Screen",Acid 25,0.19
same,"fraction fluorescent probe displaced, Replicate","Acid 25, replicate",0.22
O=C(/C=C/c1ccccc1)NC[C@@H]1NC(=O)[C@H](Cc2c[nH]c3ccccc23)NC(=O)CCNC(=O)CCSSCCNC1=O [X B2 W D3 Acid 91],"fraction fluorescent probe displaced, Screen",Acid 91,0.14
same,"fraction fluorescent probe displaced, Replicate","Acid 91, replicate",0.07
O=C1CCSSCCNC(=O)[C@@H]2C[C@H](NC(=O)c3ccc(Cl)s3)CN2C(=O)[C@H](Cc2c[nH]c3ccccc23)NC(=O)CCN1 [X B2 W D5 Acid 14],"fraction fluorescent probe displaced, Screen",Acid 14,0.11
same,"fraction fluorescent probe displaced, Replicate","Acid 14, replicate",0.15
O=C1CCSSCCNC(=O)C2CC(NC(=O)c3ccc(Cl)cc3)CN2C(=O)C(Cc2c[nH]c3ccccc23)NC(=O)CCN1 (stereo not shown) [X B2 W D5 Acid 25],"fraction fluorescent probe displaced, Screen",Acid 25,0.19
same,"fraction fluorescent probe displaced, Replicate","Acid 25, replicate",0.22
O=C1CCSSCCNC(=O)C2(CCN(C(=O)c3ccc(Cl)s3)CC2)NC(=O)[C@H](Cc2c[nH]c3ccccc23)NC(=O)CCN1 [X B2 W D6 Acid 14],"fraction fluorescent probe displaced, Screen",Acid 14,0.14
same,"fraction fluorescent probe displaced, Replicate","Acid 14, replicate",0.0465
O=C1CCSSCCNC(=O)C2(CCN(C(=O)c3ccc(Cl)cc3)CC2)NC(=O)[C@H](Cc2c[nH]c3ccccc23)NC(=O)CCN1 [X B2 W D6 Acid 25],"fraction fluorescent probe displaced, Screen",Acid 25,0.0244
same,"fraction fluorescent probe displaced, Replicate","Acid 25, replicate",0.0211
O=C1CCSSCCNC(=O)C2(CCN(C(=O)C=Cc3ccccc3)CC2)NC(=O)C(Cc2c[nH]c3ccccc23)NC(=O)CCN1 (stereo not shown) [X B2 W D6 Acid 91],"fraction fluorescent probe displaced, Screen",Acid 91,0.0563
same,"fraction fluorescent probe displaced, Replicate","Acid 91, replicate",0.07
O=C1CCSSCCNC(=O)C2CN(C(=O)c3ccc(Cl)cc3)CCN2C(=O)C(Cc2c[nH]c3ccccc23)NC(=O)CCN1 (stereo not shown) [X B2 W D7 Acid 25],"fraction fluorescent probe displaced, Screen",Acid 25,0.0569
same,"fraction fluorescent probe displaced, Replicate","Acid 25, replicate",0.10
O=C(NCC1NC(=O)C2CCCN(C2)C(=O)CCSSCCNC(=O)C(Cc2ccccc2)NC1=O)c1ccc(Cl)s1 (stereo not shown) [X B4 D3 F Acid 14],"fraction fluorescent probe displaced, Screen",Acid 14,0.14
same,"fraction fluorescent probe displaced, Replicate","Acid 14, replicate",0.15
O=C(NC[C@@H]1NC(=O)[C@H]2CCCN(C2)C(=O)CCSSCCNC(=O)[C@H](Cc2ccccc2)NC1=O)c1ccc(Cl)cc1 [X B4 D3 F Acid 25],"fraction fluorescent probe displaced, Screen",Acid 25,0.09
same,"fraction fluorescent probe displaced, Replicate","Acid 25, replicate",0.12
O=C(NC[C@@H]1NC(=O)[C@H]2CCCN(C2)C(=O)CCSSCCNC(=O)[C@H](Cc2c[nH]c3ccccc23)NC1=O)c1ccc(Cl)s1 [X B4 D3 W Acid 14],"fraction fluorescent probe displaced, Screen",Acid 14,0.63
same,"fraction fluorescent probe displaced, Replicate","Acid 14, replicate",0.58
O=C(C=Cc1ccccc1)NCC1NC(=O)C2CCCN(C2)C(=O)CCSSCCNC(=O)C(Cc2c[nH]c3ccccc23)NC1=O (stereo not shown) [X B4 D3 W Acid 91],"fraction fluorescent probe displaced, Screen",Acid 91,0.81
same,"fraction fluorescent probe displaced, Replicate","Acid 91, replicate",0.49
O=C(N[C@H]1C[C@H]2C(=O)N[C@@H](Cc3c[nH]c4ccccc34)C(=O)NCCSSCCC(=O)N3CCC[C@@H](C3)C(=O)N2C1)c1ccc(Cl)s1 [X B4 D5 W Acid 14],"fraction fluorescent probe displaced, Screen",Acid 14,0.11
same,"fraction fluorescent probe displaced, Replicate","Acid 14, replicate",0.0211
O=C1NC2(CCN(C(=O)c3ccc(Cl)s3)CC2)C(=O)N[C@@H](Cc2ccccc2)C(=O)NCCSSCCC(=O)N2CCC[C@H]1C2 [X B4 D6 F + Acid 14],fraction fluorescent probe displaced,"crude reaction of macrocycle scaffold with Acid 14, (initial screen)",0.25
same,fraction fluorescent probe displaced,"crude reaction of macrocycle scaffold with Acid 14, replicate",0.12
O=C1NC2(CCN(C(=O)c3ccc(Cl)cc3)CC2)C(=O)N[C@@H](Cc2ccccc2)C(=O)NCCSSCCC(=O)N2CCC[C@H]1C2 [X B4 D6 F + Acid 25],fraction fluorescent probe displaced,[1],0.0462
same,fraction fluorescent probe displaced,[2],0.10
O=C1NC2(CCN(C(=O)/C=C/c3ccccc3)CC2)C(=O)N[C@@H](Cc2ccccc2)C(=O)NCCSSCCC(=O)N2CCC[C@H]1C2 [X B4 D6 F + Acid 91],fraction fluorescent probe displaced,[3],0.12
same,fraction fluorescent probe displaced,[4],0.12
O=C1NC2(CCN(C(=O)c3ccc(Cl)cc3)CC2)C(=O)N[C@@H](Cc2c[nH]c3ccccc23)C(=O)NCCSSCCC(=O)N2CCC[C@H]1C2 [X B4 D6 W Acid 25],"fraction fluorescent probe displaced, Screen",Acid 25,0.38
same,"fraction fluorescent probe displaced, Replicate","Acid 25, replicate",0.25
O=C1NC2(CCN(C(=O)/C=C/c3ccccc3)CC2)C(=O)N[C@@H](Cc2c[nH]c3ccccc23)C(=O)NCCSSCCC(=O)N2CCC[C@H]1C2 [X B4 D6 W Acid 91],"fraction fluorescent probe displaced, Screen",Acid 91,0.16
same,"fraction fluorescent probe displaced, Replicate","Acid 91, replicate",0.09
O=C1NCCSSCCC(=O)N2CCCC(C2)C(=O)N2CCN(C(=O)c3ccc(Cl)cc3)CC2C(=O)NC1Cc1ccccc1 (stereo not shown) [X B4 D7 F + Acid 25],fraction fluorescent probe displaced,[1],0.15
same,fraction fluorescent probe displaced,[2],0.10
O=C1NCCSSCCC(=O)N2CCCC(C2)C(=O)N2CCN(C(=O)c3ccc(Cl)cc3)CC2C(=O)NC1Cc1c[nH]c2ccccc12 (stereo not shown) [X B4 D7 W Acid 25],"fraction fluorescent probe displaced, Screen",Acid 25,0.32
same,"fraction fluorescent probe displaced, Replicate","Acid 25, replicate",0.17
O=C(NC[C@@H]1NC(=O)[C@H](Cc2ccccc2)NC(=O)[C@H]2CCCN(C2)C(=O)CCSSCCNC1=O)c1ccc(Cl)s1 [X B4 F D3 Acid 14],"fraction fluorescent probe displaced, Screen",Acid 14,0.08
same,"fraction fluorescent probe displaced, Replicate","Acid 14, replicate",0.10
O=C(NC[C@@H]1NC(=O)[C@H](Cc2ccccc2)NC(=O)[C@H]2CCCN(C2)C(=O)CCSSCCNC1=O)c1ccc(Cl)cc1 [X B4 F D3 Acid 25],"fraction fluorescent probe displaced, Screen",Acid 25,0.09
same,"fraction fluorescent probe displaced, Replicate","Acid 25, replicate",0.12
O=C(C=Cc1ccccc1)NCC1NC(=O)C(Cc2ccccc2)NC(=O)C2CCCN(C2)C(=O)CCSSCCNC1=O (stereo not shown) [X B4 F D3 Acid 91],"fraction fluorescent probe displaced, Screen",Acid 91,0.03
same,"fraction fluorescent probe displaced, Replicate","Acid 91, replicate",-0.00827
O=C(NC1CC2C(=O)NCCSSCCC(=O)N3CCCC(C3)C(=O)NC(Cc3ccccc3)C(=O)N2C1)c1ccc(Cl)cc1 (stereo not shown) [X B4 F D5 Acid 25],"fraction fluorescent probe displaced, Screen",Acid 25,0.0569
same,"fraction fluorescent probe displaced, Replicate","Acid 25, replicate",0.12
O=C(C=Cc1ccccc1)NC1CC2C(=O)NCCSSCCC(=O)N3CCCC(C3)C(=O)NC(Cc3ccccc3)C(=O)N2C1 (stereo not shown) [X B4 F D5 Acid 91],"fraction fluorescent probe displaced, Screen",Acid 91,-0.05
same,"fraction fluorescent probe displaced, Replicate","Acid 91, replicate",-0.0333
O=C1NC(Cc2ccccc2)C(=O)NC2(CCN(C(=O)c3ccc(Cl)cc3)CC2)C(=O)NCCSSCCC(=O)N2CCCC1C2 (stereo not shown) [X B4 F D6 + Acid 25],fraction fluorescent probe displaced,[1],0.09
same,fraction fluorescent probe displaced,[2],0.17
O=C1N[C@@H](Cc2ccccc2)C(=O)NC2(CCN(C(=O)/C=C/c3ccccc3)CC2)C(=O)NCCSSCCC(=O)N2CCC[C@H]1C2 [X B4 F D6 + Acid 91],fraction fluorescent probe displaced,[3],0.08
same,fraction fluorescent probe displaced,[4],0.0168
O=C1NC(Cc2ccccc2)C(=O)N2CCN(C(=O)c3ccc(Cl)cc3)CC2C(=O)NCCSSCCC(=O)N2CCCC1C2 (stereo not shown) [X B4 F D7 Acid 25],"fraction fluorescent probe displaced, Screen",Acid 25,0.09
same,"fraction fluorescent probe displaced, Replicate","Acid 25, replicate",0.10
O=C1NC(Cc2ccccc2)C(=O)N2CCN(C(=O)C=Cc3ccccc3)CC2C(=O)NCCSSCCC(=O)N2CCCC1C2 (stereo not shown) [X B4 F D7 Acid 91],"fraction fluorescent probe displaced, Screen",Acid 91,0.00268
same,"fraction fluorescent probe displaced, Replicate","Acid 91, replicate",-0.00827
O=C(NC[C@@H]1NC(=O)[C@H](Cc2c[nH]c3ccccc23)NC(=O)[C@H]2CCCN(C2)C(=O)CCSSCCNC1=O)c1ccc(Cl)s1 [X B4 W D3 Acid 14],"fraction fluorescent probe displaced, Screen",Acid 14,0.11
same,"fraction fluorescent probe displaced, Replicate","Acid 14, replicate",0.10
